{
  "source": "patent US20220267352A1",
  "about": "“RAPAMYCIN ANALOGS AND USES THEREOF” (Anakuria Therapeutics, Inc., priority 2021, published 2022)",
  "key": {"mTORC1 over mTORC2": {"test_system": "mTORC1 over mTORC2", "test": "mTORC1 over mTORC2 selectivity by comparing pS6K1 and pAKT IC50", "type": "cell-based", "conditions": "by comparing pS6K1 and pAKT IC50, 90 min", "summary_of_the_method": "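MCF-7 cells were treated with compounds (0.5% final DMSO) for 90 minutes in one protocol and 2 hours in the other, then lysed. Phospho-signal in lysates was read by bead-based donor/acceptor proximity assay. pS6K1 and pAKT IC50 values were compared to judge mTORC1 over mTORC2 selectivity, at 90 min and at 24 hrs.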"}, "[1]": {"test_system": "p-p70 S6 Kinase (Thr389) in MCF-7 cells", "test": "AlphaLISA Ultra pS6K1 assay", "type": "cell-based", "conditions": "Homo sapiens, 1.5 h; MCF7 cells, 90 min", "summary_of_the_method": "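MCF-7 cells seeded 20–24 h, given fresh medium 2 h, then treated with compounds 90 min (0.5% DMSO final). Cells lysed, lysates frozen at −80 °C, then Thr389-phosphorylated S6K1 detected by AlphaLISA Ultra with acceptor beads 2 h, then donor beads 2 h.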"}, "[2]": {"test_system": "pS6K1 T389 and pAkt S473 in PC3 cells", "test": "Western blot based pS6K1 and pAKT assay at 24 and 48 hour timepoints", "type": "cell-based", "summary_of_the_method": "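PC3 cells (500,000/well) were treated with compound for 24 to 48 h, then lysed in 1% Triton buffer. Equal protein from Bradford-normalized lysates was analysed by Western blot for pS6K1 T389 and pAkt S473 with Li-Cor infrared detection.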"}, "[3]": {"test_system": "p-Akt 1/2/3 (Ser473) in MCF-7 cells", "test": "AlphaLISA Ultra pAKT assay", "type": "cell-based", "conditions": "Homo sapiens, 1.5 h; MCF7 cells, 90 min", "summary_of_the_method": "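MCF-7 cells (16,000˜20,000 per well in 36 μL medium) were seeded in Corning 3701 plates for 20˜24 hour, refreshed with new medium for 90 minutes, then given 12 μL of 4× compound (0.5% final DMSO). Cells were lysed with 2× lysis buffer, and lysate was analyzed by AlphaLISA Ultra pAKT using acceptor and donor beads, read on an EnSpire reader.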"}, "PC3 cells": {"test_system": "PC3 cells", "conditions": "1 or 24 hour treatment; cited from earlier work"}, "Lmna−/− mice": {"test_system": "Lmna−/− mice", "conditions": "short-term treatment; cited from earlier work"}, "human adipocytes": {"test_system": "human adipocytes", "set-up": "dose or concentration left out as unconfirmed", "conditions": "therapeutic concentration; cited from earlier work"}},
  "note": "pIC50: −log10 of the molar value.",
  "data": [
    {"smiles": "CO[C@@H]1/C(C)=C/[C@@H](C)C(=O)C[C@@H]([C@H](C)C[C@@H]2CC[C@@H](O)[C@H](OC)C2)OC(=O)[C@@H]2CCCCN2C(=O)C(=O)[C@]2(O)O[C@@H](CC[C@H]2C)C[C@H](OCCOC2COC2)/C(C)=C/C=C/C=C/[C@@H](C)C[C@@H](C)C(=O)[C@@H]1OC", "note": "[I-97, (1R,9S,12S,15R,16E,18R,19R,21R,23S,24E,26E,28E,30S,32S,35R)-1-hydroxy-12-[(1R)-2-[(1S,3R,4R)-4-hydroxy-3-methoxy-cyclohexyl]-1-methyl-ethyl]-18,19-dimethoxy-15,17,21,23,29,35-hexamethyl-30-[2-(oxetan-3-yloxy)ethoxy]-11,36-dioxa-4-azatricyclo[30.3.1.0^4,9]hexatriaconta-16,24,26,28-tetraene-2,3,10,14,20-pentone]", "values": [
      {"measurement": "mTORC1 selective @ 90 min", "setting": "mTORC1 over mTORC2", "result": "No"},
      {"measurement": "pIC50", "setting": "[1]", "result": "≤ 6.00"},
      {"measurement": "mTORC1 selective @ 24 hrs", "setting": "[2]", "result": "No"},
      {"measurement": "pIC50", "setting": "[3]", "result": "≤ 6.00"}
    ]},
    {"smiles": "CO[C@H]1C[C@@H]2CC[C@@H](C)[C@@](O)(O2)C(=O)C(=O)N2CCCC[C@H]2C(=O)O[C@H]([C@H](C)C[C@@H]2CC[C@@H](O)[C@H](OC)C2)CC(=O)[C@H](C)/C=C(\\C)[C@@H](O)[C@@H](OC)C(=O)[C@H](C)C[C@H](C)/C=C/C=C/C=C/1C", "note": "[rapamycin]", "values": [
      {"measurement": "Akt phosphorylation (S473)", "setting": "PC3 cells", "result": "strongly decreased Akt phosphorylation"},
      {"measurement": "enhanced survival", "setting": "Lmna−/− mice", "result": "~50", "unit": "%"},
      {"measurement": "AKT (PKB) Ser473 phosphorylation", "setting": "human adipocytes", "result": "reduced AKT (PKB) Ser473 phosphorylation"},
      {"measurement": "glucose uptake", "setting": "human adipocytes", "result": "reduced glucose uptake"}
    ]}
  ]
}
